The subject of one test is OVCAR-3. Briefly: Agonistic activity in human OVCAR-3 (ovarian cancer cells). In kind it is functional, cell-based.
The test system of the next test is HT-29. Briefly: Agonistic activity in human HT-29 colon cancer cells. In kind it is functional, cell-based.

The term EC50 denotes the concentration needed to bring the measured effect to its halfway point. A low value points to greater potency.

Where only a bound is given, the exact number is not on record here.

Consider `CCCCCCCCCCCCCCCCCC(=O)OC[C@@H](COP(O)(O)=S)OC`, for which the EC50 was 0.0465 µM in the test with OVCAR-3 and less than 1000 µM in the test with HT-29.
In the same order, the values of `CCCCCCCCCCCCCCCCCC(=O)OC[C@H](COP(O)(O)=S)OC` are 0.009 µM and less than 1000 µM.

The values are drawn from ChEMBL document CHEMBL1144942, “Enantioselective responses to a phosphorothioate analogue of lysophosphatidic acid with LPA3 receptor-selective agonist activity” (J Med Chem, 2003).
